According to PubChem BioAssay AID1963837 (Molecular Pharmacology Branch, DTP, NCI, 2024):

Tested on: 843126-344-R-J1-PDC complex spheroid viability
Test: Anticancer human tumor 843126-344-R-J1-PDC patient-derived melanoma cell line growth inhibition [POLQ]
Details: for IC50: curve of first compound; for viability, T/C: stronger effect = lower value
Procedure, shortened: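 Three-cell-type spheroids modelling solid tumor plus stroma served as the readout system; POL inhibitors were tested individually and in combination, concentration ranges set by clinical Cmax where known.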

[1] = second compound 0.0316 µM, first compound 0.0316 µM
[2] = second compound 0.0316 µM, first compound 0.1 µM
[3] = second compound 0.0316 µM, first compound 0.316 µM
[4] = second compound 0.0316 µM, first compound 1 µM
[5] = second compound 0.0316 µM, first compound 3.16 µM
[6] = second compound 0.0316 µM, first compound 10 µM
[7] = second compound 0.1 µM, first compound 0.0316 µM
[8] = second compound 0.1 µM, first compound 0.1 µM
[9] = second compound 0.1 µM, first compound 0.316 µM
[10] = second compound 0.1 µM, first compound 1 µM
[11] = second compound 0.1 µM, first compound 3.16 µM
[12] = second compound 0.1 µM, first compound 10 µM
[13] = second compound 0.316 µM, first compound 0.0316 µM
[14] = second compound 0.316 µM, first compound 0.1 µM
[15] = second compound 0.316 µM, first compound 0.316 µM
[16] = second compound 0.316 µM, first compound 1 µM
[17] = second compound 0.316 µM, first compound 3.16 µM
[18] = second compound 0.316 µM, first compound 10 µM
[19] = second compound 1 µM, first compound 0.0316 µM
[20] = second compound 1 µM, first compound 0.1 µM
[21] = second compound 1 µM, first compound 0.316 µM
[22] = second compound 1 µM, first compound 1 µM
[23] = second compound 1 µM, first compound 3.16 µM
[24] = second compound 1 µM, first compound 10 µM
[25] = second compound 3.16 µM, first compound 0.0316 µM
[26] = second compound 3.16 µM, first compound 0.1 µM
[27] = second compound 3.16 µM, first compound 0.316 µM
[28] = second compound 3.16 µM, first compound 1 µM
[29] = second compound 3.16 µM, first compound 3.16 µM
[30] = second compound 3.16 µM, first compound 10 µM
[31] = second compound 10 µM, first compound 0.0316 µM
[32] = second compound 10 µM, first compound 0.1 µM
[33] = second compound 10 µM, first compound 0.316 µM
[34] = second compound 10 µM, first compound 1 µM
[35] = second compound 10 µM, first compound 3.16 µM
[36] = second compound 10 µM, first compound 10 µM
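Wherever viability, T/C is given: spheroids exposed to drugs for seven days before readout.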

CC(=O)O[C@H]1C(=O)[C@@]2(C)[C@H]([C@H](OC(=O)c3ccccc3)[C@]3(O)C[C@H](OC(=O)[C@H](O)[C@@H](NC(=O)c4ccccc4)c4ccccc4)C(C)=C1C3(C)C)[C@]1(OC(C)=O)CO[C@@H]1C[C@@H]2O + Nc1ccc(C#CCN(C(=O)Cc2ncc(C(F)(F)F)cc2C(F)(F)F)c2ccc(F)cc2)nn1
IC50 (second compound 0.0316 µM): > 3 µM
IC50 (second compound 0.1 µM): > 3 µM
IC50 (second compound 0.316 µM): > 3 µM
IC50 (second compound 1 µM): > 3 µM
IC50 (second compound 3.16 µM): > 3 µM
IC50 (second compound 10 µM): > 3 µM
viability, T/C (second compound 0.0316 µM, first compound 0.00949 µM): 65.6%
viability, T/C (second compound 0.0316 µM, first compound 0.03 µM): 58.7%
viability, T/C (second compound 0.0316 µM, first compound 0.0949 µM): 65%
viability, T/C (second compound 0.0316 µM, first compound 0.3 µM): 65.8%
viability, T/C (second compound 0.0316 µM, first compound 0.949 µM): 68.5%
viability, T/C (second compound 0.0316 µM, first compound 3 µM): 69.6%
viability, T/C (second compound 0.1 µM, first compound 0.00949 µM): 65.6%
viability, T/C (second compound 0.1 µM, first compound 0.03 µM): 53.5%
viability, T/C (second compound 0.1 µM, first compound 0.0949 µM): 56.7%
viability, T/C (second compound 0.1 µM, first compound 0.3 µM): 61.5%
viability, T/C (second compound 0.1 µM, first compound 0.949 µM): 78.6%
viability, T/C (second compound 0.1 µM, first compound 3 µM): 61.2%
viability, T/C (second compound 0.316 µM, first compound 0.00949 µM): 68.1%
viability, T/C (second compound 0.316 µM, first compound 0.03 µM): 53.4%
viability, T/C (second compound 0.316 µM, first compound 0.0949 µM): 70.7%
viability, T/C (second compound 0.316 µM, first compound 0.3 µM): 61.6%
viability, T/C (second compound 0.316 µM, first compound 0.949 µM): 64.8%
viability, T/C (second compound 0.316 µM, first compound 3 µM): 73.5%
viability, T/C (second compound 1 µM, first compound 0.00949 µM): 67.2%
viability, T/C (second compound 1 µM, first compound 0.03 µM): 57.1%
viability, T/C (second compound 1 µM, first compound 0.0949 µM): 62.2%
viability, T/C (second compound 1 µM, first compound 0.3 µM): 55.6%
viability, T/C (second compound 1 µM, first compound 0.949 µM): 62.8%
viability, T/C (second compound 1 µM, first compound 3 µM): 62.7%
viability, T/C (second compound 3.16 µM, first compound 0.00949 µM): 69.3%
viability, T/C (second compound 3.16 µM, first compound 0.03 µM): 62.1%
viability, T/C (second compound 3.16 µM, first compound 0.0949 µM): 54.9%
viability, T/C (second compound 3.16 µM, first compound 0.3 µM): 59.8%
viability, T/C (second compound 3.16 µM, first compound 0.949 µM): 63.7%
viability, T/C (second compound 3.16 µM, first compound 3 µM): 61.5%
viability, T/C (second compound 10 µM, first compound 0.00949 µM): 65.5%
viability, T/C (second compound 10 µM, first compound 0.03 µM): 57.6%
viability, T/C (second compound 10 µM, first compound 0.0949 µM): 61.5%
viability, T/C (second compound 10 µM, first compound 0.3 µM): 61.3%
viability, T/C (second compound 10 µM, first compound 0.949 µM): 60.2%
viability, T/C (second compound 10 µM, first compound 3 µM): 61.8%

COc1cc(C2c3cc4c(cc3C(OC3OC5COC(C)OC5C(O)C3O)C3COC(=O)C23)OCO4)cc(OC)c1O (stereo unspecified) + Nc1ccc(C#CCN(C(=O)Cc2ncc(C(F)(F)F)cc2C(F)(F)F)c2ccc(F)cc2)nn1
IC50 (second compound 0.0316 µM): > 10 µM
IC50 (second compound 0.1 µM): > 10 µM
IC50 (second compound 0.316 µM): > 10 µM
IC50 (second compound 1 µM): > 10 µM
IC50 (second compound 3.16 µM): 7.6 µM
IC50 (second compound 10 µM): 6.29 µM
viability, T/C [1]: 82.4%
viability, T/C [2]: 78.3%
viability, T/C [3]: 94%
viability, T/C [4]: 89.7%
viability, T/C [5]: 58.3%
viability, T/C [6]: 49.5%
viability, T/C [7]: 97.1%
viability, T/C [8]: 77.8%
viability, T/C [9]: 92%
viability, T/C [10]: 94.3%
viability, T/C [11]: 73.4%
viability, T/C [12]: 51.4%
viability, T/C [13]: 91.8%
viability, T/C [14]: 104%
viability, T/C [15]: 99.1%
viability, T/C [16]: 78.9%
viability, T/C [17]: 70.1%
viability, T/C [18]: 49.5%
viability, T/C [19]: 96.1%
viability, T/C [20]: 83.6%
viability, T/C [21]: 80.5%
viability, T/C [22]: 71.6%
viability, T/C [23]: 64.3%
viability, T/C [24]: 53.5%
viability, T/C [25]: 88.3%
viability, T/C [26]: 77%
viability, T/C [27]: 89.9%
viability, T/C [28]: 75.2%
viability, T/C [29]: 68.6%
viability, T/C [30]: 44.3%
viability, T/C [31]: 81.8%
viability, T/C [32]: 96.5%
viability, T/C [33]: 78.5%
viability, T/C [34]: 75.4%
viability, T/C [35]: 61.7%
viability, T/C [36]: 42.3%

COc1cccc2c1C(=O)c1c(O)c3c(c(O)c1C2=O)CC(O)(C(=O)CO)CC3OC1CC(N)C(O)C(C)O1 (stereo unspecified) + Nc1ccc(C#CCN(C(=O)Cc2ncc(C(F)(F)F)cc2C(F)(F)F)c2ccc(F)cc2)nn1
IC50 (second compound 0.0316 µM): 0.393 µM
IC50 (second compound 0.1 µM): 0.412 µM
IC50 (second compound 0.316 µM): 0.293 µM
IC50 (second compound 1 µM): 0.348 µM
IC50 (second compound 3.16 µM): 0.29 µM
IC50 (second compound 10 µM): 0.288 µM
viability, T/C [1]: 84.7%
viability, T/C [2]: 84.8%
viability, T/C [3]: 57.3%
viability, T/C [4]: 16.1%
viability, T/C [5]: 3.95%
viability, T/C [6]: 2.82%
viability, T/C [7]: 94.7%
viability, T/C [8]: 84.4%
viability, T/C [9]: 61.3%
viability, T/C [10]: 15.7%
viability, T/C [11]: 3.48%
viability, T/C [12]: 2.63%
viability, T/C [13]: 77.9%
viability, T/C [14]: 94.6%
viability, T/C [15]: 47.5%
viability, T/C [16]: 12.2%
viability, T/C [17]: 2.99%
viability, T/C [18]: 2.71%
viability, T/C [19]: 78.5%
viability, T/C [20]: 79%
viability, T/C [21]: 52.6%
viability, T/C [22]: 14.2%
viability, T/C [23]: 3.21%
viability, T/C [24]: 2.34%
viability, T/C [25]: 82.4%
viability, T/C [26]: 76.3%
viability, T/C [27]: 47.8%
viability, T/C [28]: 13.9%
viability, T/C [29]: 3.21%
viability, T/C [30]: 2.76%
viability, T/C [31]: 80.6%
viability, T/C [32]: 73.4%
viability, T/C [33]: 48.5%
viability, T/C [34]: 10.4%
viability, T/C [35]: 2.78%
viability, T/C [36]: 2.29%
